Species on record: Rattus norvegicus
Assay: DrugMatrix - Regimen: Daily Repeat
Format: toxicity, organism-based, Sprague-Dawley
Design: regimen Daily Repeat, gender Male, age 6-8 weeks
Details: in vivo, ip, 1 mg/kg, route intraperitoneal, dose level High, vehicle 100 % SALINE; for ABSOLUTE BASOPHIL / ABSOLUTE EOSINOPHIL / ABSOLUTE LYMPHOCYTE / ABSOLUTE MONOCYTE / ABSOLUTE SEGMENTED NEUTROPHIL / BASOPHIL / EOSINOPHIL / ERYTHROCYTE COUNT / HEMATOCRIT / HEMOGLOBIN / LEUKOCYTE COUNT / LYMPHOCYTE / MEAN CORPUSCULAR HEMOGLOBIN / MEAN CORPUSCULAR HEMOGLOBIN CONCENTRATION / MEAN CORPUSCULAR VOLUME / MONOCYTE / NEUTROPHIL / NUCLEATED RED BLOOD CELLS / PLATELET COUNT: tissue Blood; for ALANINE AMINOTRANSFERASE / ALKALINE PHOSPHATASE / ASPARTATE AMINOTRANSFERASE / BLOOD UREA NITROGEN / CARBON DIOXIDE / CHLORIDE / CHOLESTEROL / CREATININE / GLUCOSE / LACTATE DEHYDROGENASE / LIPASE / PHOSPHORUS / POTASSIUM / SODIUM / TOTAL BILIRUBIN / TOTAL PROTEIN / URIC ACID: tissue Plasma

For CC[C@H]1CN2CCc3cc(OC)c(OC)cc3[C@@H]2C[C@@H]1C[C@H]1NCCc2cc(OC)c(OC)cc21 [EMETINE], the “ABSOLUTE BASOPHIL” value (72 h, time 3 day) was 0 CELLS/uL, the “ABSOLUTE EOSINOPHIL” value (72 h, time 3 day) was 235.33 CELLS/uL and the “ABSOLUTE LYMPHOCYTE” value (72 h, time 3 day) was 9173.33 CELLS/uL. For the same molecule, the “ABSOLUTE MONOCYTE” value (72 h, time 3 day) was 141.33 CELLS/uL, the “ABSOLUTE SEGMENTED NEUTROPHIL” value (72 h, time 3 day) was 916.67 CELLS/uL and the BASOPHIL (72 h, time 3 day) was 0%. For the same molecule, the EOSINOPHIL (72 h, time 3 day) was 2.33%, the “ERYTHROCYTE COUNT” value (72 h, time 3 day) was 6.53 x10E6/uL and the HEMATOCRIT (72 h, time 3 day) was 38.67%. For the same molecule, the HEMOGLOBIN (72 h, time 3 day) was 13.97 G/DL, the “LEUKOCYTE COUNT” value (72 h, time 3 day) was 10.47 x10E3/uL and the LYMPHOCYTE (72 h, time 3 day) was 88%. For the same molecule, the “MEAN CORPUSCULAR HEMOGLOBIN” value (72 h, time 3 day) was 21.37 pg, the “MEAN CORPUSCULAR HEMOGLOBIN CONCENTRATION” value (72 h, time 3 day) was 36.1 G/DL and the “MEAN CORPUSCULAR VOLUME” value (72 h, time 3 day) was 59.2 fL. For the same molecule, the MONOCYTE (72 h, time 3 day) was 1.33%, the NEUTROPHIL (72 h, time 3 day) was 8.33% and the “NUCLEATED RED BLOOD CELLS” value (72 h, time 3 day) was 0 /100WBC. For the same molecule, the “PLATELET COUNT” value (72 h, time 3 day) was 1026.33 x10E3/uL, the “ALANINE AMINOTRANSFERASE” value (72 h, time 3 day) was 66.33 u/L and the “ALKALINE PHOSPHATASE” value (72 h, time 3 day) was 365 u/L. The “ASPARTATE AMINOTRANSFERASE” value (72 h, time 3 day) was 82.33 u/L, the “BLOOD UREA NITROGEN” value (72 h, time 3 day) was 17.67 mg/dL and the “CARBON DIOXIDE” value (72 h, time 3 day) was 34.67 mmol/L. It also gave a CHLORIDE (72 h, time 3 day) of 100.33 MEQ/L, a CHOLESTEROL (72 h, time 3 day) of 63 mg/dL and a CREATININE (72 h, time 3 day) of 0.22 mg/dL. The GLUCOSE (72 h, time 3 day) was 180.33 mg/dL, the “LACTATE DEHYDROGENASE” value (72 h, time 3 day) was 120.33 u/L and the LIPASE (72 h, time 3 day) was 9 u/L. For the same molecule, the PHOSPHORUS (72 h, time 3 day) was 11.83 mg/dL, the POTASSIUM (72 h, time 3 day) was 6.48 MEQ/L and the SODIUM (72 h, time 3 day) was 146.33 MEQ/L. The “TOTAL BILIRUBIN” value (72 h, time 3 day) was 0.2 mg/dL, the “TOTAL PROTEIN” value (72 h, time 3 day) was 6.27 G/DL and the “URIC ACID” value (72 h, time 3 day) was 1.73 mg/dL. The “ABSOLUTE BASOPHIL” value (120 h, time 5 day) was 0 CELLS/uL, the “ABSOLUTE EOSINOPHIL” value (120 h, time 5 day) was 107.33 CELLS/uL and the “ABSOLUTE LYMPHOCYTE” value (120 h, time 5 day) was 9674.67 CELLS/uL. For the same molecule, the “ABSOLUTE MONOCYTE” value (120 h, time 5 day) was 240.33 CELLS/uL, the “ABSOLUTE SEGMENTED NEUTROPHIL” value (120 h, time 5 day) was 1811 CELLS/uL and the BASOPHIL (120 h, time 5 day) was 0%. For the same molecule, the EOSINOPHIL (120 h, time 5 day) was 1%, the “ERYTHROCYTE COUNT” value (120 h, time 5 day) was 6.23 x10E6/uL and the HEMATOCRIT (120 h, time 5 day) was 37.3%. For the same molecule, the HEMOGLOBIN (120 h, time 5 day) was 13.67 G/DL, the “LEUKOCYTE COUNT” value (120 h, time 5 day) was 11.83 x10E3/uL and the LYMPHOCYTE (120 h, time 5 day) was 82.67%. For the same molecule, the “MEAN CORPUSCULAR HEMOGLOBIN” value (120 h, time 5 day) was 21.93 pg, the “MEAN CORPUSCULAR HEMOGLOBIN CONCENTRATION” value (120 h, time 5 day) was 36.67 G/DL and the “MEAN CORPUSCULAR VOLUME” value (120 h, time 5 day) was 59.8 fL. For the same molecule, the MONOCYTE (120 h, time 5 day) was 2%, the NEUTROPHIL (120 h, time 5 day) was 14.33% and the “NUCLEATED RED BLOOD CELLS” value (120 h, time 5 day) was 0 /100WBC. For the same molecule, the “PLATELET COUNT” value (120 h, time 5 day) was 1167.33 x10E3/uL, the “ALANINE AMINOTRANSFERASE” value (120 h, time 5 day) was 57 u/L and the “ALKALINE PHOSPHATASE” value (120 h, time 5 day) was 325 u/L. For the same molecule, the “ASPARTATE AMINOTRANSFERASE” value (120 h, time 5 day) was 102.33 u/L, the “BLOOD UREA NITROGEN” value (120 h, time 5 day) was 16.67 mg/dL and the “CARBON DIOXIDE” value (120 h, time 5 day) was 28.67 mmol/L. The CHLORIDE (120 h, time 5 day) was 100.67 MEQ/L, the CHOLESTEROL (120 h, time 5 day) was 52.67 mg/dL and the CREATININE (120 h, time 5 day) was 0.23 mg/dL. The GLUCOSE (120 h, time 5 day) was 272.67 mg/dL, the “LACTATE DEHYDROGENASE” value (120 h, time 5 day) was 312 u/L and the LIPASE (120 h, time 5 day) was 8.67 u/L. The PHOSPHORUS (120 h, time 5 day) was 14.97 mg/dL, the POTASSIUM (120 h, time 5 day) was 5.87 MEQ/L and the SODIUM (120 h, time 5 day) was 146.87 MEQ/L. The “TOTAL BILIRUBIN” value (120 h, time 5 day) was 0.1 mg/dL, the “TOTAL PROTEIN” value (120 h, time 5 day) was 5.9 G/DL and the “URIC ACID” value (120 h, time 5 day) was 2.8 mg/dL. For the same molecule, the “ABSOLUTE BASOPHIL” value ([…], time 14 day) was 0 CELLS/uL, the “ABSOLUTE EOSINOPHIL” value ([…], time 14 day) was 124.6 CELLS/uL and the “ABSOLUTE LYMPHOCYTE” value ([…], time 14 day) was 16602.4 CELLS/uL. The “ABSOLUTE MONOCYTE” value ([…], time 14 day) was 725.4 CELLS/uL, the “ABSOLUTE SEGMENTED NEUTROPHIL” value ([…], time 14 day) was 1987.6 CELLS/uL and the BASOPHIL ([…], time 14 day) was 0%. For the same molecule, the EOSINOPHIL ([…], time 14 day) was 0.6%, the “ERYTHROCYTE COUNT” value ([…], time 14 day) was 6.66 x10E6/uL and the HEMATOCRIT ([…], time 14 day) was 38.76%. The HEMOGLOBIN ([…], time 14 day) was 14.18 G/DL, the “LEUKOCYTE COUNT” value ([…], time 14 day) was 19.44 x10E3/uL and the LYMPHOCYTE ([…], time 14 day) was 85.6%. The “MEAN CORPUSCULAR HEMOGLOBIN” value ([…], time 14 day) was 21.32 pg, the “MEAN CORPUSCULAR HEMOGLOBIN CONCENTRATION” value ([…], time 14 day) was 36.58 G/DL and the “MEAN CORPUSCULAR VOLUME” value ([…], time 14 day) was 58.24 fL. For the same molecule, the MONOCYTE ([…], time 14 day) was 3.6%, the NEUTROPHIL ([…], time 14 day) was 10.2% and the “NUCLEATED RED BLOOD CELLS” value ([…], time 14 day) was 0 /100WBC. For the same molecule, the “PLATELET COUNT” value ([…], time 14 day) was 1306.2 x10E3/uL, the “ALANINE AMINOTRANSFERASE” value ([…], time 14 day) was 45.2 u/L and the “ALKALINE PHOSPHATASE” value ([…], time 14 day) was 253.2 u/L. For the same molecule, the “ASPARTATE AMINOTRANSFERASE” value ([…], time 14 day) was 99 u/L, the “BLOOD UREA NITROGEN” value ([…], time 14 day) was 13.6 mg/dL and the “CARBON DIOXIDE” value ([…], time 14 day) was 31.8 mmol/L. The CHLORIDE ([…], time 14 day) was 101 MEQ/L, the CHOLESTEROL ([…], time 14 day) was 62.2 mg/dL and the CREATININE ([…], time 14 day) was 0.14 mg/dL. The GLUCOSE ([…], time 14 day) was 143.2 mg/dL, the “LACTATE DEHYDROGENASE” value ([…], time 14 day) was 172.6 u/L and the LIPASE ([…], time 14 day) was 8.8 u/L. It also gave a PHOSPHORUS ([…], time 14 day) of 11.54 mg/dL, a POTASSIUM ([…], time 14 day) of 6.76 MEQ/L and an SODIUM ([…], time 14 day) of 145.5 MEQ/L. For the same molecule, the “TOTAL BILIRUBIN” value ([…], time 14 day) was 0.2 mg/dL, the “TOTAL PROTEIN” value ([…], time 14 day) was 5.82 G/DL and the “URIC ACID” value ([…], time 14 day) was 1.66 mg/dL.
